Assay results reported in patent publication US9814732B2, “Ulipristal acetate for prevention and treatment of breast tumors” (LABORATOIRE HRA-PHARMA, priority 2012, dated 2017).
Each block holds one compound with its values, some of them ahead of it.

Key:
[1] = target: T1, GR (Homo sapiens, UniProt P04150); assay: GRE-Luc reporter gene transactivation in HBE cells; format: cell-based; settings: DEX 100 nM, test compound 100 nM, read-out: inhibition of DEX induced luciferase transactivation (GRE-Luc)
T1 sequence (P04150 1-777): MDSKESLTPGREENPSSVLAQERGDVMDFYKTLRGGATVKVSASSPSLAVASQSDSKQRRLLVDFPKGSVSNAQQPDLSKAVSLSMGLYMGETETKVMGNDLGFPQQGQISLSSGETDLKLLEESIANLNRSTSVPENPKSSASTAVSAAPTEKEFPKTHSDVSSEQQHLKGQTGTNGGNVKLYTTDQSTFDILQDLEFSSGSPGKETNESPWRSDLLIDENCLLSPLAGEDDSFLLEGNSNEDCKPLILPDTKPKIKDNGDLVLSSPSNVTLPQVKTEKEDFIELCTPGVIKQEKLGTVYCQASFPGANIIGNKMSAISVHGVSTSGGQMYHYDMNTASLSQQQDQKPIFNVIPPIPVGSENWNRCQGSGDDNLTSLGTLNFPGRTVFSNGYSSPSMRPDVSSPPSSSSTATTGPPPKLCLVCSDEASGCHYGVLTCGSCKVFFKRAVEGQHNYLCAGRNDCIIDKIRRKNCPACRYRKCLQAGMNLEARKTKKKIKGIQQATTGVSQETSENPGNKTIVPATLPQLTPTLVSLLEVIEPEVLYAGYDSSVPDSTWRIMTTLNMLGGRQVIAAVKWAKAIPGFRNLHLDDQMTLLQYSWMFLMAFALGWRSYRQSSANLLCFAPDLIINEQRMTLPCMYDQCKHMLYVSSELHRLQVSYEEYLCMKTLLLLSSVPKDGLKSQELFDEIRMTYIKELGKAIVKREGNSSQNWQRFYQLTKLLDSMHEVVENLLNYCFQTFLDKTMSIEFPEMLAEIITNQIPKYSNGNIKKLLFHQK

[2] = target: T1, GR; assay: GRE-Luc reporter gene transactivation in MCF-7 cells; format: cell-based; parameters: endogenous in cells; host or cells: MCF-7; settings: MCF7, DEX 100 nM, test compound 100 nM, read-out: inhibition of DEX-induced luciferase transactivation (GRE-Luc)
[3] = Hormone concentrations in serum of pellet-treated athymic mice; format: in vivo; settings: female, NMRI nu/nu athymic, mouse, other: steroid pellets grafted onto the neck, E2 0.3 mg pellet, day 28, read-out: concentration in mice serum (mean±SEM)
Description: (§1) Four weeks old ovariectomized female NMRInu/nu 20 athymic mice were purchased from Janvier laboratory (Le Genest Saint Isle, France). Breast tissues samples were obtained from 6 women (aged 29-42 years). Human mammary gland tissue was cut into 2×2×2 mm fragments and 4 fragments were then subcutaneously xenografted onto the back of 4 mice per group. Four treatment groups were performed: control, E2, E2+P and E2+P+UPA. Treatments were administered by grafting steroid pellets onto the neck of each mouse. The experimental conditions were initially determined by using a dose range of hormones mixed with cholesterol into the pellets. Blood sample assays were performed after 2 weeks and 4 weeks of treatment to measure plasmatic hormonal concentrations. Finally, the dose of 0.3 mg for E2 and 20 mg for P and UPA were used, as it provides the expected blood concentrations. For the control groups, pellets containing only cholesterol were used. To reproduce menstrual cycle conditions, mice were grafted on the first day of experiment with cholesterol, E2 and/or UPA containing pellets and on the fourteen day with cholesterol or progesterone containing pellets in control and E2 groups, or in E+P and E2+P+UPA groups, respectively. Twenty eight days after the start of experiment, mice were sacrificed. Blood was collected for each mouse, and serum was frozen at −20° C. until hormone concentrations
Estradiol was measured by radioimmunoassay using Clinical Assays Estradiol-2 (Sorin Biomedica Diagnostics SpA, Saluggia, Italia). Progesterone levels were evaluated by UPLC-MSMS using Acquity UPLC and Quattro Premier XE (Waters, Milford Mass., USA).
UPA concentrations were measured using LC-MS/MS technique by MPI Research (State College, Pa., USA).

[4] = tested on: normal human breast tissues xenografts; assay: Ki67 mitotic index in normal human breast tissue xenografted in athymic mice; format: in vivo; settings: 28 days
From the text: Breast tissues samples were obtained from 6 women (aged 29-42 years) undergoing surgery for reduction mammoplasty, with their informed consent according to the French law on clinical experimentation.
as §1
Mitotic index was calculated using the Ki67 antibody, and was determined for each breast tissue grafted into mice. Immunohistochemical analyses were performed using the BOND-MAX workstation (Leica, Nanterre, France). Paraffin sections of breast tissue xenografts were de-waxed and rehydrated before antigen retrieval using citrate retrieval solution (pH 6.0) for Ki67 antibody or EDTA retrieval solution (pH 9.0) for PR and ERalpha antibodies, for 30 min. […]

[5] = tested on: hPR-A and hPR-B; assay: MMTV-Luc reporter gene transactivation in HBE cells transfected with hPR-A and/or hPR-B; format: cell-based, human
[6] = tested on: metastatic breast cancers; settings: cited from earlier work; for disease stabilization / objective response rate: 123 postmenopausal women, second or third line, mifepristone or onapristone pooled
[7] = target: T2, PR (Homo sapiens, UniProt P06401); assay: MMTV-Luc reporter gene transactivation in T-47D cells; format: cell-based; parameters: constitutively expressed high amounts of PR (progesterone receptor); endogenous in cells; host or cells: T-47D
T2 sequence (P06401 1-933): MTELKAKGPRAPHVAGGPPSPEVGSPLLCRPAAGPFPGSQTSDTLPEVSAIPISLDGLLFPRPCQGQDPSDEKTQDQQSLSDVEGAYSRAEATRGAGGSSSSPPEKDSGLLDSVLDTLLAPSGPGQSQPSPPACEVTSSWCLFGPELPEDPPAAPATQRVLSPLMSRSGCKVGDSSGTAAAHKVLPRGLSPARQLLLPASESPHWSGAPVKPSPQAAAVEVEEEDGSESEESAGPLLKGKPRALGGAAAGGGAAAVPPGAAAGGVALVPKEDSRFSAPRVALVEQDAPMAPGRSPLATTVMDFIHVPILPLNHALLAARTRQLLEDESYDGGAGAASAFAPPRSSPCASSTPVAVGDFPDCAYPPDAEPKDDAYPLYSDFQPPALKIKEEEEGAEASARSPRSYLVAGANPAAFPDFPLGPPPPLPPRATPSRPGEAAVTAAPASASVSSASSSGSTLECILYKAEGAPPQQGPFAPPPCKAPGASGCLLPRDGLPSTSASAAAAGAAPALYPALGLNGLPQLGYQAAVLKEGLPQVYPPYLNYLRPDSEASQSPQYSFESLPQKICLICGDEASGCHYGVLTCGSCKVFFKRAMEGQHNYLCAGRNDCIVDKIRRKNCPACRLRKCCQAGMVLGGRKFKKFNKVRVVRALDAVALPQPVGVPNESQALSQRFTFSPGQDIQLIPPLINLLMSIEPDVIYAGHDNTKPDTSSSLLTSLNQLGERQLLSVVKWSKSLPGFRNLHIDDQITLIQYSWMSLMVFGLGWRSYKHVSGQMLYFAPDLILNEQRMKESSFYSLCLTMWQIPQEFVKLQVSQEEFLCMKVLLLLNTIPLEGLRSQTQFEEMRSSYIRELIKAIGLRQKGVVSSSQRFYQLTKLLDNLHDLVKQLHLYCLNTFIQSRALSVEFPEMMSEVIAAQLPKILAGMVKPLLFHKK

[8] = tested on: HBCx-34 tumors; settings: model characterisation; cited from earlier work

inhibition at 0.1 µM [1]: 18.1 ± 11.8%
inhibition at 0.1 µM [2]: 26.5 ± 9.1%
SMILES: CNc1ccc([C@H]2C[C@@]3(C)[C@@H](CC[C@]3(OC(C)=O)C(C)=O)[C@@H]3CCC4=CC(=O)CCC4=C32)cc1 [CDB-3877]

concentration at 28 days [3]: 0.0369 ± 0.00425 ng/mL
SMILES: C[C@]12CC[C@@H]3c4ccc(O)cc4CC[C@H]3[C@@H]1CC[C@@H]2O [E2, 17β estradiol]
proliferative activity (Ki67) in lobules ([4]; E2 treated group vs control group): slightly but not significantly increased
mitotic index (Ki67) in ducts ([4]; E2 treated group, p<0.05): 3.1±0.7 fold induction compared to the control group

PR antagonist response on MMTV-Luc transactivation at 1 nM ([7]; P 100 nM, antagonist 1 nM): Partial antagonist responses
SMILES: CC#C[C@]1(O)CC[C@H]2[C@@H]3CCC4=CC(=O)CCC4=C3[C@@H](c3ccc(N(C)C)cc3)C[C@@]21C [RU-486, mifepristone]
inhibition of P induced MMTV-Luc transactivation ([5]; HBE cells co-transfected with hPR-A and hPR-B, P 100 nM, antagonist 1 to 1000 nM): inhibited P induced MMTV11 Luc transactivation in a dose dependent manner from 1 000 to 10 nM
progestational agonist properties on reporter gene transcription ([5]; HBE cells, compound alone): did not exhibit progestational agonist properties
disease stabilization [6]: 43%
objective response rate [6]: 11%
side effects that stopped clinical studies [6]: anti-glucocorticoid
PR antagonist action on MMTV-Luc transactivation ([7]; P 100 nM, antagonist 1000 to 10 nM): potent PR antagonist actions from 1000 to 10 nM
progestational agonist properties on reporter gene transcription ([7]; compound alone): did not exhibit progestational agonist properties

SMILES: CCCCCOC(=O)Nc1nc(=O)n([C@@H]2O[C@H](C)[C@@H](O)[C@H]2O)cc1F [capecitabine]
responsiveness of the HBCx-34 tumor [8]: responsive

SMILES: CC(=O)O[C@@]12CO[C@@H]1C[C@H](O)[C@@]1(C)C(=O)[C@H](O)C3=C(C)[C@@H](OC(=O)[C@H](O)[C@@H](NC(=O)OC(C)(C)C)c4ccccc4)C[C@@](O)([C@@H](OC(=O)c4ccccc4)[C@H]21)C3(C)C [docetaxel]
responsiveness of the HBCx-34 tumor [8]: responsive

SMILES: CN(C)c1ccc([C@H]2C[C@]3(C)[C@@H](CC[C@]3(O)CCCO)[C@@H]3CCC4=CC(=O)CCC4=C32)cc1 [onapristone]
disease stabilization [6]: 43%
objective response rate [6]: 11%
side effects that stopped clinical studies [6]: liver toxic
